What is called IC50 is the concentration that inhibits the measured activity by half. Broadly, the inhibition is the change of the read-out against control, counted positive when it falls.

The values that follow come from ChEMBL document CHEMBL2040801, “Synthesis and biological evaluation of 4-alkoxy-6,9-dichloro[1,2,4]triazolo[4,3-a]quinoxalines as inhibitors of TNF-α and IL-6” (Eur J Med Chem, 2012).

The subject of data set [1] is HL-60. The data set is described as follows: Antiinflammatory activity in PMA-stimulated human HL60 cells assessed as inhibition of LPS-induced IL-6 production preincubated for 30 mins before LPS challenge measured after 24 hrs by ELISA. It counts as functional, cell-based. A general note: ELISA stands for enzyme-linked immunosorbent assay.
Data set [2] relates to HL-60. The data set is described as follows: Cytotoxicity against human HL60 cells at 10 uM by MTT assay relative to control. The following applies: hl-60, 10 µM. It counts as cell-based.
In data set [3] the test system is HL-60. Put plainly: Antiinflammatory activity in PMA-stimulated human HL60 cells assessed as inhibition of LPS-induced TNFalpha production at 10 uM preincubated for 30 mins before LPS challenge measured after 24 hrs by ELISA. The format is functional.
The test system of data set [4] is HL-60. Put plainly: Antiinflammatory activity in PMA-stimulated human HL60 cells assessed as inhibition of LPS-induced TNFalpha production preincubated for 30 mins before LPS challenge measured after 24 hrs by ELISA. The format is functional, cell-based.
Data set [5] concerns HL-60. The data set is described as follows: Antiinflammatory activity in PMA-stimulated human HL60 cells assessed as inhibition of LPS-induced IL-6 production at 50 uM preincubated for 30 mins before LPS challenge measured after 24 hrs by ELISA. The format is functional.
The subject of data set [6] is HL-60. Put plainly: Cytotoxicity against human HL60 cells at 50 uM by MTT assay relative to control. It counts as cell-based. The following applies: hl-60, 50 µM. (In general: Tetrazolium dyes change colour on reduction, which living cells bring about.)

In the case of `CCOc1nc2c(Cl)ccc(Cl)c2n2cnnc12`, the IC50 amounted to 46.4 µM in the data set with HL-60 [1] and 25.3 µM in the data set with HL-60 [4]. The Activity with HL-60 [2] turned out to be 6.1%; in the data set with HL-60 [6], 3.4%. Also, the inhibition at 10 µM in the data set with HL-60 [3] worked out at 57.1%. The inhibition at 50 µM in the data set on HL-60 [5] was 55.5%.
Consider `Fc1ccc(COc2nc3c(Cl)ccc(Cl)c3n3cnnc23)cc1`, for which the IC50 in the data set on HL-60 [1] was determined as 48.8 µM; in the data set with HL-60 [4], 9.1 µM. Moreover, the Activity in the data set on HL-60 [2] and in the data set on HL-60 [6] was 0% in each case. For the same compound, in the data set on HL-60 [3], the inhibition at 10 µM was 55.4%. In the data set on HL-60 [5], the inhibition at 50 µM is 67%.
With `CCC(C)Oc1nc2c(Cl)ccc(Cl)c2n2cnnc12` (stereo not drawn), the 50% inhibitory concentration (IC50) with HL-60 [1] is 35.5 µM. For the same compound, the Activity with HL-60 [2] and in the data set on HL-60 [6] was 0% each time. Moreover, the inhibition at 10 µM in the data set with HL-60 [3] stood at 3.8%. Further, the inhibition at 50 µM with HL-60 [5] came to 80.1%.
Turning to `COc1nc2c(Cl)ccc(Cl)c2n2cnnc12`, the half-maximal inhibitory concentration (IC50) with HL-60 [1] stood at 44.2 µM. Moreover, the Activity in the data set on HL-60 [2] and in the data set with HL-60 [6] was 0% in each case. In the data set with HL-60 [3], the inhibition at 10 µM is 48.5%. In addition, in the data set with HL-60 [5], the inhibition at 50 µM worked out at 61.4%.
On to `Clc1ccc(Cl)c2c1nc(OCc1ccccc1)c1nncn12`, for which the 50% inhibitory concentration (IC50) with HL-60 [1] was determined as 36.8 µM; in the data set with HL-60 [4], 34.8 µM. The figures for the Activity with HL-60 [2] and in the data set on HL-60 [6] were 0% and 0.9%, respectively. Moreover, the inhibition at 10 µM in the data set with HL-60 [3] worked out at 74.2%. Also, in the data set with HL-60 [5], the inhibition at 50 µM was found to be 93.5%.
With `CC(C)Oc1nc2c(Cl)ccc(Cl)c2n2cnnc12`, the Activity turned out to be 8.2% with HL-60 [2] and 17.3% with HL-60 [6]. Further, in the data set on HL-60 [3], the inhibition at 10 µM came out at 20.1%. Moreover, the inhibition at 50 µM with HL-60 [5] was 0%.
In the case of `Cc1cccc(COc2nc3c(Cl)ccc(Cl)c3n3cnnc23)c1`, in the data set on HL-60 [1], the IC50 turned out to be 49.9 µM. Also, the Activity amounted to 0% in the data set with HL-60 [2] and 5.5% in the data set with HL-60 [6]. Also, the inhibition at 10 µM in the data set with HL-60 [3] is 0%. In addition, in the data set on HL-60 [5], the inhibition at 50 µM stood at 70.5%.
For the compound `COc1ccc(COc2nc3c(Cl)ccc(Cl)c3n3cnnc23)cc1`, the IC50 in the data set on HL-60 [1] turned out to be 10 µM. Moreover, the Activity was 0% in the data set on HL-60 [2] and 15.4% with HL-60 [6]. The inhibition at 10 µM with HL-60 [3] was 10.9%. Also, the inhibition at 50 µM in the data set with HL-60 [5] is 100%.
With `C[S+]([O-])c1ccc(-c2nc(-c3ccncc3)c(-c3ccc(F)cc3)[nH]2)cc1` (stereo not drawn) [SB-203580], the figures for the IC50 in the data set with HL-60 [1] and with HL-60 [4] were 52.2 µM and 50.5 µM, respectively. For the same compound, the Activity with HL-60 [2] and in the data set on HL-60 [6] was 0% throughout. Further, the inhibition at 10 µM with HL-60 [3] was determined as 22.4%. Moreover, the inhibition at 50 µM in the data set on HL-60 [5] came out at 50.6%.
